Laboratory results published in PMC5365648, “Pharmacokinetics of the Novel Echinocandin CD101 in Multiple Animal Species” (Antimicrobial Agents and Chemotherapy, 2017).
“Also recorded” adds a separate entry of the source. Where two headings read alike, the source gives them in different places. Starred links: 1 amine or outer side, 2 acyl side, 3 side chain; linkers in the order of their positions; H or OH if unused. Positions of bridges follow the written chain, without caps; N, C: chain ends. Non-standard residues stand in square brackets, D forms with d. Residues, ends and D or L forms follow the SMILES beside them. *: point of attachment. Orn(4R-OH,5R-OCH2CH2NMe3+) = C[N+](C)(C)CCO[C@@H](N[*:3])[C@H](O)C[C@H](N[*:1])C(=O)[*:2]; pTerphenylCO(4''-OnC5H11) = CCCCCOc1ccc(-c2ccc(-c3ccc(C(=O)*)cc3)cc2)cc1; hTyr(3S-OH,4S-OH) = N[C@H](C(=O)O)[C@H](O)[C@@H](O)c1ccc(O)cc1; Pro(3S-OH,4S-Me) = C[C@H]1CN[C@H](C(=O)O)[C@H]1O; Hyp = O=C(O)[C@@H]1C[C@@H](O)CN1

Experiment: Rat pharmacokinetics, i.v. bolus
Type: in vivo, Sprague-Dawley rats
Protocol: In one of three rat studies reported here, a single 5-, 15-, or 45-mg/kg dose of CD101 was administered by slow i.v. bolus (∼3 min) to Sprague-Dawley rats (n = 3 to 5/dose). Blood samples (via jugular vein catheter [JVC]) were drawn for plasma processing at 0.083, 0.25, 0.5, 1, 2, 4, 8, 24, 48, 120, 168, and 240 h after dosing. In the second rat study, conducted to assess tissue distribution, a single 5-mg/kg dose of CD101 was administered by slow i.v. bolus (∼3 min) to male Sprague-Dawley rats (n = 3 animals/time point). Blood samples (via cardiac puncture) were collected for plasma processing predose and at 0.083, 0.5, 1, 2, 4, 8, 24, 48, 72, 96, and 120 h postdose. In parallel with blood collection, animals were euthanized, and tissues (liver, lungs, kidneys, heart, spleen, and brain) were excised and frozen prior to analysis. In the third rat study, conducted to assess excretion, a single 5-mg/kg dose of CD101 was administered by slow i.v. bolus (∼3 min) to bile duct-cannulated male Sprague-Dawley rats (n = 3). Bile samples were collected from each animal into prelabeled bile collection tubes predose and at 0 to 8, 8 to 24, 24 to 48, 48 to 72, 72 to 96, and 96 to 120 h postdose; urine samples were collected from each animal at the same time points pre- and postdose.
For each of the pharmacokinetic studies, whole-blood samples (K3EDTA as anticoagulant) were collected and centrifuged within 30 min of collection. The resulting plasma was harvested and stored at −20°C until analysis. Tissue samples were homogenized by a bead-based homogenizer following the addition of deionized water to excised tissue in a 2:1 (vol/wt) ratio and stored at −20°C until analysis. Prior to analysis, plasma or homogenized tissue samples were quenched with acetonitrile (3:1, acetonitrile-plasma or tissue ratio) containing an appropriate internal standard (isotopically labeled d9-CD101 [mouse and rat] or a structural analog [dog, monkey, and chimpanzee]). Plasma and tissue homogenate concentrations (quantified against calibration standards processed the same way) were determined by reverse-phase, gradient liquid chromatography with tandem mass spectrometric detection (LC-MS/MS) using an AB-SCIEX API 3200Q/4000 mass spectrometry system. Calibration standard ranges were the following: 0.400 (lower limit of quantitation, [LLOQ]) to 200 μg/ml (CD101, mouse), 0.040 (LLOQ) to 10 μg/ml (anidulafungin, mouse), 0.002 (LLOQ) to 10 μg/ml (CD101, rat), 0.005 (LLOQ) to 10 μg/ml (anidulafungin, rat), 0.050 (LLOQ) to 10 μg/ml (CD101, dog), 0.020 (LLOQ) to 10 μg/ml (anidulafungin, dog), 0.010 (LLOQ) to 10 μg/ml (CD101, monkey), 0.001 (LLOQ) to 10 μg/ml (anidulafungin, monkey), 0.015 (LLOQ) to 10 μg/ml (CD101, chimpanzee), and 0.015 (LLOQ) to 10 μg/ml (anidulafungin, chimpanzee). When necessary, dilutions with blank matrix were made for samples that quantified above the upper limit of quantitation. The methods used in the analysis were qualified as fit for purpose: calibration standards were matrix matched with the exception that human plasma calibration standards were used to analyze chimpanzee plasma samples due to the rarity of blank chimpanzee plasma, and, for each analytical batch, triplicate calibration standards were included at the beginning, approximately in the middle, and at the end of the batch. Following analysis, quantitation was carried out by a calibration curve comprising the analyte/internal standard area ratio versus concentration. Analytical batch acceptance followed the general guidance that triplicate standards/quality controls be within ±20% for accuracy (percentage of nominal concentration) and ≤20% for precision (percent coefficient of variation).
Pharmacokinetic parameters were calculated by noncompartmental analysis using Phoenix WinNonlin (version 6.3; Pharsight, Mountain View, CA) from either individual or mean (mouse) concentration-time profiles. An unpaired t test was used to compare mean exposures from male and female rats.

[1] = rat, in vivo, iv, 5 mg/kg, female Sprague-Dawley rats, single 5 mg/kg slow i.v. bolus, plasma, LC-MS/MS, noncompartmental, n = 3 to 5/dose
[2] = rat, in vivo, iv, 5 mg/kg, male Sprague-Dawley rats, single 5 mg/kg slow i.v. bolus, plasma, LC-MS/MS, noncompartmental, n = 3 to 5/dose
[3] = rat, in vivo, iv, 15 mg/kg, female Sprague-Dawley rats, single 15 mg/kg slow i.v. bolus, plasma, LC-MS/MS, noncompartmental, n = 3 to 5/dose
[4] = rat, in vivo, iv, 15 mg/kg, male Sprague-Dawley rats, single 15 mg/kg slow i.v. bolus, plasma, LC-MS/MS, noncompartmental, n = 3 to 5/dose
[5] = rat, in vivo, iv, 45 mg/kg, female Sprague-Dawley rats, single 45 mg/kg slow i.v. bolus, plasma, LC-MS/MS, noncompartmental, n = 3 to 5/dose
[6] = rat, in vivo, iv, 45 mg/kg, male Sprague-Dawley rats, single 45 mg/kg slow i.v. bolus, plasma, LC-MS/MS, noncompartmental, n = 3 to 5/dose

## CCCCCOc1ccc(-c2ccc(-c3ccc(C(=O)N[C@H]4C[C@@H](O)[C@@H](OCC[N+](C)(C)C)NC(=O)[C@@H]5[C@@H](O)[C@@H](C)CN5C(=O)[C@H]([C@@H](C)O)NC(=O)[C@H]([C@H](O)[C@@H](O)c5ccc(O)cc5)NC(=O)[C@@H]5C[C@@H](O)CN5C(=O)[C@H]([C@@H](C)O)NC4=O)cc3)cc2)cc1 [CD101] ({pTerphenylCO(4''-OnC5H11)}-[Orn(4R-OH,5R-OCH2CH2NMe3+)]T[Hyp][hTyr(3S-OH,4S-OH)]T[Pro(3S-OH,4S-Me)]; lactam 1-C)
Female Sprague-Dawley rats, single 5 mg/kg slow i.v. bolus, plasma, LC-MS/MS, noncompartmental, n = 3 to 5/dose
  Tmax: 4.98 min
Male Sprague-Dawley rats, single 15 mg/kg slow i.v. bolus, plasma, LC-MS/MS, noncompartmental, n = 3 to 5/dose
  Tmax: 4.98 min
Male Sprague-Dawley rats, single 45 mg/kg slow i.v. bolus, plasma, LC-MS/MS, noncompartmental, n = 3 to 5/dose
  Tmax: 4.98 min
[1]
  AUC(0-inf): 188 µg·h/mL
  AUC(0-t): 185 µg·h/mL
  Cmax: 10500 ng/mL
  half-life: 35.7 h
rat, in vivo, iv, 5 mg/kg, female Sprague-Dawley rats, single 5 mg/kg slow i.v. bolus, plasma, LC-MS/MS, noncompartmental, n = 3 to 5/dose, read-out: CL (clearance)
  clearance: 0.444 mL/min/kg
rat, in vivo, iv, 5 mg/kg, female Sprague-Dawley rats, single 5 mg/kg slow i.v. bolus, plasma, LC-MS/MS, noncompartmental, n = 3 to 5/dose, read-out: Vss (volume of distribution at steady state)
  Vd: 1.21 L/kg
[2]
  AUC(0-inf): 183 µg·h/mL
  AUC(0-t): 180 µg·h/mL
  Cmax: 12000 ng/mL
  half-life: 34.9 h
rat, in vivo, iv, 5 mg/kg, male Sprague-Dawley rats, single 5 mg/kg slow i.v. bolus, plasma, LC-MS/MS, noncompartmental, n = 3 to 5/dose, read-out: CL (clearance)
  clearance: 0.456 mL/min/kg
rat, in vivo, iv, 5 mg/kg, male Sprague-Dawley rats, single 5 mg/kg slow i.v. bolus, plasma, LC-MS/MS, noncompartmental, n = 3 to 5/dose, read-out: Vss (volume of distribution at steady state)
  Vd: 1.16 L/kg
[3]
  AUC(0-inf): 441 µg·h/mL
  AUC(0-t): 435 µg·h/mL
  Cmax: 27600 ng/mL
  half-life: 34.9 h
rat, in vivo, iv, 15 mg/kg, female Sprague-Dawley rats, single 15 mg/kg slow i.v. bolus, plasma, LC-MS/MS, noncompartmental, n = 3 to 5/dose, read-out: CL (clearance)
  clearance: 0.567 mL/min/kg
rat, in vivo, iv, 15 mg/kg, female Sprague-Dawley rats, single 15 mg/kg slow i.v. bolus, plasma, LC-MS/MS, noncompartmental, n = 3 to 5/dose, read-out: Vss (volume of distribution at steady state)
  Vd: 1.45 L/kg
[4]
  AUC(0-inf): 580 µg·h/mL
  AUC(0-t): 562 µg·h/mL
  Cmax: 35900 ng/mL
  half-life: 42.7 h
rat, in vivo, iv, 15 mg/kg, male Sprague-Dawley rats, single 15 mg/kg slow i.v. bolus, plasma, LC-MS/MS, noncompartmental, n = 3 to 5/dose, read-out: CL (clearance)
  clearance: 0.431 mL/min/kg
rat, in vivo, iv, 15 mg/kg, male Sprague-Dawley rats, single 15 mg/kg slow i.v. bolus, plasma, LC-MS/MS, noncompartmental, n = 3 to 5/dose, read-out: Vss (volume of distribution at steady state)
  Vd: 1.42 L/kg
[5]
  AUC(0-inf): 1510 µg·h/mL
  AUC(0-t): 1490 µg·h/mL
  Cmax: 115000 ng/mL
  half-life: 39.9 h
rat, in vivo, iv, 45 mg/kg, female Sprague-Dawley rats, single 45 mg/kg slow i.v. bolus, plasma, LC-MS/MS, noncompartmental, n = 3 to 5/dose, read-out: CL (clearance)
  clearance: 0.496 mL/min/kg
rat, in vivo, iv, 45 mg/kg, female Sprague-Dawley rats, single 45 mg/kg slow i.v. bolus, plasma, LC-MS/MS, noncompartmental, n = 3 to 5/dose, read-out: Vss (volume of distribution at steady state)
  Vd: 1.55 L/kg
[6]
  AUC(0-inf): 1660 µg·h/mL
  AUC(0-t): 1610 µg·h/mL
  Cmax: 164000 ng/mL
  half-life: 44.5 h
rat, in vivo, iv, 45 mg/kg, male Sprague-Dawley rats, single 45 mg/kg slow i.v. bolus, plasma, LC-MS/MS, noncompartmental, n = 3 to 5/dose, read-out: CL (clearance)
  clearance: 0.452 mL/min/kg
rat, in vivo, iv, 45 mg/kg, male Sprague-Dawley rats, single 45 mg/kg slow i.v. bolus, plasma, LC-MS/MS, noncompartmental, n = 3 to 5/dose, read-out: Vss (volume of distribution at steady state)
  Vd: 1.57 L/kg
rat, in vivo, iv, rat, intravenous, one value for the species as given in the abstract (doses 5, 15, 45 mg/kg, both sexes in Table 1), read-out: Vss
  Vd: 1.39 L/kg
rat, in vivo, iv, rat, intravenous, one value for the species as given in the abstract (doses 5, 15, 45 mg/kg, both sexes in Table 1), read-out: clearance
  clearance: 0.47 mL/min/kg
rat, in vivo, iv, female Sprague-Dawley rats, single 15 mg/kg slow i.v. bolus, plasma, LC-MS/MS, noncompartmental, n = 3 to 5/dose, read-out: Tmax
  Tmax: 4.98 min
rat, in vivo, iv, female Sprague-Dawley rats, single 45 mg/kg slow i.v. bolus, plasma, LC-MS/MS, noncompartmental, n = 3 to 5/dose, read-out: Tmax
  Tmax: 4.98 min
rat, in vivo, iv, male Sprague-Dawley rats, single 5 mg/kg slow i.v. bolus, plasma, LC-MS/MS, noncompartmental, n = 3 to 5/dose, read-out: Tmax
  Tmax: 4.98 min
rat, in vivo, iv, one value for the species as given in the abstract (doses 5, 15, 45 mg/kg, both sexes in Table 1)
  half-life: 39 h
Rats (Table 1) or monkeys (data not shown)
  PK differences between males and females: no sex differences; also recorded: No PK differences between males and females
